Assay results reported in PubChem BioAssay (NCI).
Where “and” joins values, the source holds several entries; their conditions need not be identical. Equal entries are not always repeated.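 Compound exposure: 48 hours, 5 concentrations, 96-well plates. At the GI50, growth is halved. TGI denotes the concentration required for complete inhibition of growth.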

Tested on: MDA-MB-468 breast
Experiment: inhibition of tumour cell growth, NCI panel, 48 h

`CC(=O)OC[C@@]12Oc3c(cccc3-c3ccc(O)c4c3O[C@]3(COC(C)=O)C(=C4O)C(=O)C[C@H](C)[C@@H]3OC(C)=O)C(O)=C1C(=O)C[C@H](C)[C@@H]2OC(C)=O` gave a GI50 of 15.1 µM and a TGI of 48.7 µM.

With `CC#CC(=O)N[C@H]1CCCN(c2c(F)cc(C(N)=O)c3[nH]c(C)c(C)c23)C1` the GI50 was 11.8 µM and the TGI was 27 µM.

Work on `O=C(Nc1ccc(O)c(NS(=O)(=O)c2ccc(F)cc2)c1)c1ccc(-c2ccccc2)cc1` yielded a GI50 of 2.48 µM and a TGI of 10.8 µM.

For `COc1ccc2c(c1)c(-c1nc(-c3cn(C)c4ncccc34)cs1)cn2CCCCN1CCOCC1`, the GI50 was 1.34 µM and the TGI was 3.08 µM.

`COc1cc(/C=N/Nc2ncnc3c2cnn3Cc2ccccc2)ccc1O` showed a GI50 of 7.88 µM and a TGI of over 25 µM.

For `O=C1C(Cl)=C(Nc2ccccn2)C(=O)c2ccccc21`, the GI50 was 1.99 µM and the TGI was 4.39 µM.

Compound `COc1cc(C2C(C(=O)OCc3ccccc3)=C(C)NC(C)=C2C(=O)OCc2ccccc2)cc(OC)c1OC` has a GI50 of 2.43 µM and a TGI of over 100 µM.

`CCc1cccc(CC)c1NC(=O)c1ccn2c1CCc1cnc(Nc3ccc(N4CCN(C)CC4)cc3OC)nc1-2` gave a GI50 of 2.1 µM and a TGI of 5.91 µM.

`Cc1csc(-c2ccc3c(c2)COC3(CCCN(C)C)c2ccc(F)cc2)c1` (stereo not drawn) gave a GI50 of 1.7 µM and a TGI of 3.38 µM.

For `CC(C)NCCCCCNc1cc(O)cc2cccnc12`, the GI50 was 2.29 µM and the TGI was 6.2 µM.

Work on `N=C(N)c1ccc(-c2ccc(-c3ccc(Cl)c(Cl)c3)o2)nc1` yielded a GI50 of 1.82 µM and a TGI of 3.56 µM.

Compound `Cc1[nH]c2ccccc2c1C1=CC(=O)C=CC1=O` has a GI50 of 3.1 µM and a TGI of 11.2 µM.

With `O=C1c2ccccc2CCC1(Br)Br` the GI50 was 1.2 µM and the TGI was 2.95 µM.

Compound `Nc1ncnc2c1c(C(=O)NO)cn2C1OC(CO)C(O)C1O` (stereo not drawn) has a GI50 of 0.115 µM and a TGI of 0.908 µM.

`Cc1cccc2c1NC(=O)C2(c1ccc(O)cc1)c1ccc(O)cc1` was tested, and the GI50 was under 0.0181 µM and the TGI was 4.24 µM.

With `CNC(=O)c1c(NC(=O)c2ccc(C(C)C)cc2)sc2c1CCC(=O)C2` the GI50 was 0.45 µM and the TGI was 2.33 µM.

`c1ccc(C2=NN[C@H](c3cn(-c4ccccc4)nc3-c3ccccc3)C2)cc1` showed a GI50 of 4.18 µM and a TGI of over 100 µM.

For `CCOC(=O)c1c(NC(=O)c2ccccc2C(F)(F)F)sc2c1CCC(=O)C2`, the GI50 was 2.35 µM and the TGI was 7.52 µM.

`CC(=O)Nc1ccc(S(=O)(=O)c2ccc(NC(C)=O)cc2)cc1` showed a GI50 of 64.8 µM and a TGI of over 100 µM.

Compound `N#C/C(=C\c1ccc([N+](=O)[O-])s1)c1nc2cc(Br)ccc2s1` has a GI50 of 1.89 µM and a TGI of 5.42 µM.

With `CCCN(CCC)c1ccc(/C=N/NC(=O)c2cccnc2)cc1` the GI50 was 16.4 µM and the TGI was 84.2 µM.

Work on `CN1CCN(CCCOc2ccc3nc(Nc4ccc(C(F)(F)F)c(Cl)c4)ccc3c2)CC1` yielded a GI50 of 1.54 µM and a TGI of 3.16 µM.

`CN1CCN(CCCN2c3ccccc3Sc3ccc(C(F)(F)F)cc32)CC1` was tested, and the GI50 was 1.52 µM and the TGI was 3.19 µM.

For `OCCN1CCN(c2nc(Nc3ccc(-c4nc5ccccc5[nH]4)cc3)c3cn[nH]c3n2)CC1`, the GI50 was 1.69 µM and the TGI was 3.23 µM.

`COc1ccc(C(=O)c2cc(OC)c(OC)c(OC)c2)cc1/C=C/C(=O)c1ccc2c(c1)OCO2` was tested, and the GI50 was 1.44 µM and the TGI was 4.06 µM.

With `COc1cccc2cc(-c3nc(C4CCC(C(=O)O)CC4)n4ncnc(N)c34)[nH]c12` (stereo not drawn) the GI50 was 0.185 µM and 0.257 µM and the TGI was 1.09 µM and 3 µM.

Compound `CCCCC/C=C\C/C=C/CCCCCCCCNC(=O)Nc1ccc([N+](=O)[O-])cc1` has a GI50 of 7.63 µM and a TGI of 73 µM.

Work on `CCNC(=O)c1ccc2c(c1)nc(-c1ccc(Cl)cc1)n2-c1cc(C(C)(C)C)[nH]n1` yielded a GI50 of 2.26 µM and a TGI of 8.3 µM.

For `Cc1nc2sc(C(=O)Nc3cccc(Cl)c3C)c(N)c2cc1C(=O)c1ccccc1`, the GI50 was 0.126 µM and the TGI was 0.889 µM.

With `COc1cc(C(=O)Nc2cc(O)c(C/C=C(\C)CCC=C(C)C)c(O)c2)cc2c1O[C@]1(C)CC[C@@H](O)C(C)(C)[C@H]1C2` the GI50 was 0.816 µM and 0.212 µM and the TGI was 4.95 µM.

`O=c1cc(-c2ccccc2)nc2cc(-c3ccco3)[nH]n12` was tested, and the GI50 was 2.89 µM and the TGI was 59.5 µM.

Work on `O=C(Nc1cccc(-n2cc(-c3ccncc3)c(-c3ccc(O)c(Cl)c3)n2)c1)c1ccc(N2CCOCC2)c(C(F)(F)F)c1` yielded a GI50 of 35.3 µM and a TGI of over 50 µM.

Work on `O=C1CCCC(=O)C1C(=O)c1ccc(C(F)(F)F)cc1[N+](=O)[O-]` yielded a GI50 of over 100 µM and a TGI of over 100 µM.

`O=C(Nc1ccc(Cl)cc1F)c1cc(Cl)ccc1O` gave a GI50 of 0.429 µM and a TGI of 3.96 µM.
